Some test systems named below: HCT-116 colon; HL-60(TB) leukemia; LOX IMVI melanoma; MDA-MB-435; OVCAR-4 ovarian; SF-295 CNS; SN12C renal; U251 CNS; UO-31 renal; HCC-2998 colon.
What all share (assay): NCI-60 cell line screen, 48 h

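Grown in 96-well plates, cells were treated for 48 hours with each compound at five concentrations. Insufficient inhibition: endpoint recorded as highest concentration tested. Abbreviation: GI50, concentration required for 50% inhibition of growth. TGI marks complete inhibition of growth.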

Consider `COC(=O)c1cc2c(s1)-c1nccc3c1c(nc1ccccc13)C2=O`, for which the GI50 in the assay with HCT-116 colon was over 100 µM; in the assay with HL-60(TB) leukemia, 12.3 µM; with LOX IMVI melanoma it was 29 µM; in the assay on MDA-MB-435, 17.7 µM; with OVCAR-4 ovarian, over 100 µM; with SF-295 CNS, over 100 µM. The GI50 in the assay with SN12C renal is over 100 µM; in the assay with U251 CNS, 50.6 µM; in the assay on UO-31 renal, over 100 µM. Also, the TGI is over 100 µM in the assay with HCT-116 colon; over 100 µM with HL-60(TB) leukemia; over 100 µM in the assay with LOX IMVI melanoma; 32 µM in the assay with MDA-MB-435; over 100 µM with OVCAR-4 ovarian; over 100 µM in the assay on SF-295 CNS. Also, the TGI with SN12C renal, in the assay on U251 CNS and with UO-31 renal was over 100 µM in each case.
Consider `C=CCN1CCC23c4c5ccc(O)c4OC2C(=NN=C2CCC4(O)C6Cc7ccc(O)c8c7C4(CCN6CC=C)C2O8)CCC3(O)C1C5` (stereo not given), for which the TGI in the assay with HCC-2998 colon amounted to 43.2 µM; in the assay with LOX IMVI melanoma, 41.1 µM; in the assay on OVCAR-4 ovarian, 40.8 µM; in the assay with SF-295 CNS, 40.9 µM; in the assay with SN12C renal, 47.8 µM; in the assay with U251 CNS it was 34.9 µM. In the assay with UO-31 renal, this compound displayed a TGI of over 100 µM.
As to `COc1ccc(Cn2c(N)c(S(=O)(=O)c3ccc(Cl)cc3)c3nc(C#N)c(C#N)nc32)cc1`, the GI50 is over 50 µM in the assay with HCT-116 colon; over 50 µM in the assay with HL-60(TB) leukemia; 8.27 µM with LOX IMVI melanoma; over 50 µM with MDA-MB-435; 25.2 µM in the assay on OVCAR-4 ovarian; 10.8 µM in the assay on SF-295 CNS. Also, the GI50 in the assay with SN12C renal was 1.45 µM; with U251 CNS, 10.1 µM; in the assay on UO-31 renal, 32.6 µM. Also, the TGI in the assay with HCT-116 colon was over 50 µM; in the assay on HL-60(TB) leukemia, over 50 µM; in the assay on LOX IMVI melanoma, 38.3 µM; with MDA-MB-435 it was over 50 µM; in the assay with OVCAR-4 ovarian it was over 50 µM; in the assay with SF-295 CNS, over 50 µM. Further, the results for the TGI in the assay on SN12C renal, in the assay on U251 CNS and in the assay with UO-31 renal were 17.9 µM, 30.3 µM and over 50 µM, respectively.
`CC(C)(C)[Si](C)(C)OC1C(=O)C[C@H]2CCCC[C@@H]12` (stereo not given in full): the TGI with HCC-2998 colon, in the assay on HCT-116 colon, with HL-60(TB) leukemia, with LOX IMVI melanoma, with OVCAR-4 ovarian and with SF-295 CNS was over 100 µM in each case. For the same compound, the TGI in the assay on SN12C renal, with U251 CNS and in the assay with UO-31 renal was over 100 µM in each case.
Take `Cn1c2ccccc2c2ncc3[nH]c4ccccc4c3c21`: the TGI with HCC-2998 colon was over 100 µM; in the assay on HCT-116 colon, 26 µM; in the assay on HL-60(TB) leukemia, 41.3 µM; with LOX IMVI melanoma, 56.2 µM; in the assay with OVCAR-4 ovarian, 32.1 µM; in the assay with SF-295 CNS, 47.9 µM. The results for the TGI with SN12C renal, with U251 CNS and in the assay with UO-31 renal were 73.2 µM, 39.9 µM and 26.9 µM, respectively.
Take `C[C@]12CCC(=O)C=C1CC[C@@H]1C2CC[C@]2(C)Nc3[nH]ncc3CC12` (stereo not given in full): the TGI with HCC-2998 colon, in the assay on HCT-116 colon, in the assay on HL-60(TB) leukemia, in the assay with OVCAR-4 ovarian, with SF-295 CNS and with U251 CNS was over 100 µM each time. Further, in the assay on UO-31 renal, the TGI was over 100 µM.
With `Cc1cc2cc3c(=O)[nH]c(=O)[nH]c3nc2cc1C`, the TGI in the assay on HCT-116 colon, in the assay with HL-60(TB) leukemia, with LOX IMVI melanoma, in the assay on MDA-MB-435, with OVCAR-4 ovarian and in the assay with SF-295 CNS was over 100 µM throughout. Also, the TGI in the assay on SN12C renal, with U251 CNS and in the assay on UO-31 renal was over 100 µM each time.
Regarding `CCOC(=O)c1ccc(N=Nc2cc(C(=O)OCC)ccc2O)cc1`, the TGI in the assay on HCT-116 colon, in the assay on HL-60(TB) leukemia, in the assay with LOX IMVI melanoma, in the assay on SN12C renal, in the assay with U251 CNS and in the assay on UO-31 renal was over 100 µM each time.
In the case of `COC(=O)c1s/c(=N\C(=S)N(C)C)n(-c2ccc(Cl)cc2)c1C(=O)OC`, the TGI in the assay on HCC-2998 colon, with HCT-116 colon, in the assay with HL-60(TB) leukemia, in the assay with LOX IMVI melanoma, with OVCAR-4 ovarian and in the assay on SF-295 CNS was over 100 µM throughout. For the same compound, the TGI in the assay on SN12C renal, with U251 CNS and in the assay with UO-31 renal was over 100 µM each time.
Regarding `O=C(Nc1cc(C(F)(F)F)ccc1Cl)c1cccc(NC2=C(Cl)C(=O)N(Cc3ccccc3)C2=O)c1`, the GI50 is 10.3 µM with HCT-116 colon; 3.52 µM in the assay on HL-60(TB) leukemia; 5.65 µM with LOX IMVI melanoma; 15.7 µM in the assay with MDA-MB-435; over 100 µM in the assay on OVCAR-4 ovarian; 29.1 µM in the assay on SF-295 CNS. In addition, the GI50 in the assay on SN12C renal was 32.1 µM; with U251 CNS, 11.1 µM; in the assay with UO-31 renal it was 0.7 µM. Also, the TGI in the assay on HCT-116 colon was over 100 µM; in the assay on HL-60(TB) leukemia, 9.23 µM; in the assay with LOX IMVI melanoma, over 100 µM; in the assay with MDA-MB-435 it was over 100 µM; in the assay with OVCAR-4 ovarian it was over 100 µM; with SF-295 CNS, over 100 µM. The TGI in the assay on SN12C renal is over 100 µM; in the assay on U251 CNS it was over 100 µM; in the assay with UO-31 renal, 58.2 µM.
`O=C1CCC(=O)c2c1c(O)c1ccncc1c2O`: the TGI amounted to 29.6 µM with HCC-2998 colon; 27.9 µM in the assay with HCT-116 colon; 26.4 µM in the assay on HL-60(TB) leukemia; 27.4 µM in the assay with LOX IMVI melanoma; 25.6 µM in the assay on OVCAR-4 ovarian; 36.4 µM in the assay on SF-295 CNS. The TGI with SN12C renal was 31.6 µM; with U251 CNS, 64.3 µM; in the assay on UO-31 renal, 31.4 µM.
For the compound `COC12OCCN(C)C1=CC(=O)C1=NNC(C)C12` (stereo not given), the TGI with HCC-2998 colon, in the assay on HCT-116 colon, with HL-60(TB) leukemia, in the assay on LOX IMVI melanoma, in the assay with SF-295 CNS and in the assay with SN12C renal was over 100 µM each time. Besides, the TGI with U251 CNS and in the assay on UO-31 renal was over 100 µM each time.
In the case of `O=C(O)c1ccc(C(=O)O)c2c(C(=O)O)ccc(C(=O)O)c12`, the TGI in the assay on HCT-116 colon, with LOX IMVI melanoma, with MDA-MB-435, in the assay with OVCAR-4 ovarian, with SF-295 CNS and with SN12C renal was over 100 µM in each case. The TGI in the assay with U251 CNS and with UO-31 renal was over 100 µM throughout.
